These results are taken from patent US20120108632A1, “[…] INHIBITORS FOR OCULAR HYPERTENSION CONTROL AND THE TREATMENT OF GLAUCOMA” (ALCON RESEARCH, LTD., priority 2006, published 2012).

Data set [1] addresses GGTase (Homo sapiens, UniProt P53609). The following applies: cited from earlier work.
The subject of data set [2] is lactate dehydrogenase (LDH) release into culture media. The experiment in a line: CytoTox-ONE Homogenous Membrane Integrity Assay (LDH release). The following applies: conclusion from LDH release; FIG. 4. The data set is classed as cell-based.
Data set [3] has as its system CTGF gene expression in cultured human trabecular meshwork cells. As to the kind of experiment: Basal and TGFβ2-induced CTGF gene expression by QRT-PCR in TM cells. The data set is classed as cell-based. The following applies: for measured CTGF levels (CTGF/18S cDNA) compared to TGFβ2-treated cells: TM cells treated with TGFβ2 and inhibitor, versus TGFβ2 alone, FIGS. 1 and 2. The text has this:
(§1) Total RNA was isolated from TM cells using Qiagen RNeasy 96 system according to the manufacturer's instructions (Qiagen).
Differential expression of CTGF and PAI-1 were verified by quantitative real-time RT-PCR (QRT-PCR) using an ABI Prism® 7700 Sequence Detection System (Applied Biosystems) essentially as previously described (Shepard et al., IOVS, 2001, Vol. 42:3173). Primers for CTGF amplification were designed using Primer Express software (Applied Biosystems) to anneal to adjacent exons of Genbank accession #NM_001901.1 ([…] (SEQ ID NO: 1), nts 1667-1689 and […] (SEQ ID NO: 2), nts 1723-1742, with probe sequence 6FAM-[…]-TAMRA (SEQ ID NO: 3)) and generate a 76-bp amplicon. Primers for PAI-1 amplification were purchased from ABI (Hs00167155 ml) and correspond to Genbank accession #NM_000602.1. Amplification of CTGF or PAI-1 was normalized to 18S ribosomal RNA expression using primers designed to the 18S rRNA gene (GenBank accession #X03205 […] (SEQ ID NO: 4), nts 1680-1700 and […] (SEQ ID NO: 5), nts 1730-1749, with probe sequence 6FAM-[…]-MGBNFQ (SEQ ID NO: 6)) which generates a 69-bp amplicon. CTGF or PAI-1 QRT-PCR was performed in multiplex with 18S primer/probe sets in a 50 ul final volume consisting of 40 nM 18S or 900 nM CTGF or PAI-1 primers; 100 nM 18S probe or 100 nM CTGF or 250 nM PAI-1 probe; 5 ul RNA; 1× Multiscribe and RNase Inhibitor Mix (ABI); and 1× TaqMan® Universal Mix (ABI). Thermal cycling conditions consisted of 48° C., 30 min, 95° C. 10 min followed by 40 cycles at 95° C., 15 sec, 60° C., 1 min. […] Quantification of relative RNA concentrations was done using the delta delta Ct method as described in PE Biosystems User Bulletin #2. Levels of amplified products were expressed as mean±SEM of quadruplicate QRT-PCR assays. […]
(§2) In this example, the effectiveness of GGTase and FTase inhibitors on CTGF gene expression in cultured human trabecular meshwork cells was studied. In this experiment, the CTGF/18S cDNA levels were measured and compared by QRT-PCR according to the protocol of Example 1.

For data set [4], the target named is Ftase (Homo sapiens, UniProt P49356). The conditions noted are these: cited from earlier work.
Data set [5] concerns PAI-1 gene expression in TM cell lines. As to the kind of experiment: TGFβ2-induced PAI-1 gene expression by QRT-PCR in TM cells. The data set is classed as cell-based, human. The following applies: TM cell lines treated with TGFβ2 and inhibitor, versus TGFβ2 alone; FIG. 3.
Description: as §1
Differential expression of CTGF and PAI-1 were verified by quantitative real-time RT-PCR (QRT-PCR) using an ABI Prism® 7700 Sequence Detection System (Applied Biosystems) essentially as previously described (Shepard et al., IOVS, 2001, Vol. 42:3173). Primers for CTGF amplification were designed using Primer Express software (Applied Biosystems) to anneal to adjacent exons of Genbank accession #NM_001901.1 ([…] (SEQ ID NO: 1), nts 1667-1689 and […] (SEQ ID NO: 2), nts 1723-1742, with probe sequence 6FAM-[…]-TAMRA (SEQ ID NO: 3)) and generate a 76-bp amplicon. Primers for PAI-1 amplification were purchased from ABI (Hs00167155 ml) and correspond to Genbank accession #NM_000602.1. […] Quantification of relative RNA concentrations was done using the delta delta Ct method as described in PE Biosystems User Bulletin #2. Levels of amplified products were expressed as mean±SEM of quadruplicate QRT-PCR assays. […]
as §2

With `CSCC[C@H](NC(=O)c1ccc(NC[C@@H](N)CS)cc1-c1ccccc1)C(=O)O` [FTI-276], in data set [1], the concentration for half-maximal inhibition (IC50) is 50 nM.
Take `COC(=O)[C@H](CCSC)NC(=O)c1ccc(NC[C@@H](N)CS)cc1-c1ccccc1` [FTI-277]: in data set [2], the cytotoxicity result was “relatively low cytotoxicity”. Moreover, in data set [3], the “measured CTGF levels (CTGF/18S cDNA) compared to TGFβ2-treated cells” value is recorded as “produces a drop in measured CTGF levels”. Further, the 50% inhibitory concentration (IC50) in data set [4] is 100 nM. Besides, in data set [5], the “measured PAI-1 compared to TGFβ2-treated cells” value is given as “able to produce drops in measured PAI-1”.
As to `CSCC[C@H](NC(=O)c1ccc(NC(=O)[C@@H](N)CS)cc1)C(=O)O` [Ftase Inhibitor II], the half-maximal inhibitory concentration (IC50) in data set [4] is 50 nM.
For `CSCC[C@H](NC(=O)[C@H](Cc1ccccc1)NC[C@@H](NC[C@@H](N)CS)C(C)C)C(=O)O` [Ftase Inhibitor I], the IC50 in data set [1] was 790 nM; in data set [4] it was 21 nM.
Regarding `COC(=O)[C@H](CC(C)C)NC(=O)c1ccc(NC[C@@H](N)CS)cc1-c1ccccc1` [GGTI-286], in data set [1], the IC50 was 2000 nM.
Take `CC(C)C[C@H](NC(=O)c1ccc(NC[C@@H](N)CS)cc1-c1cccc2ccccc12)C(=O)O` [GGTI-297]: the 50% inhibitory concentration (IC50) in data set [1] is 50 nM; in data set [4] it was 200 nM.
Take `COC(=O)[C@H](CC(C)C)NC(=O)c1ccc(NC[C@@H](N)CS)cc1-c1cccc2ccccc12` [GGTI-298]: the IC50 in data set [1] was 3000 nM.
Consider `CC(C)C[C@H](NC(=O)c1ccc(NCc2cnc[nH]2)cc1-c1cccc2ccccc12)C(=O)O` [GGTI-2133], for which, in data set [2], the cytotoxicity result was “relatively low cytotoxicity”. Moreover, the “measured CTGF levels (CTGF/18S cDNA) compared to vehicle alone” value in data set [3] (TM cell cultures treated with TGFβ2 and inhibitor, versus vehicle alone, FIG. 1) is recorded as “lower than with vehicle alone”. Besides, the “measured CTGF levels (CTGF/18S cDNA) compared to TGFβ2-treated cells” value in data set [3] was “dramatically reduced CTGF levels”. Further, the IC50 in data set [1] was 38 nM; in data set [4] it was 5400 nM. The “measured PAI-1 compared to TGFβ2-treated cells” value in data set [5] is on record as “able to produce drops in measured PAI-1”.
`COC(=O)[C@H](CC(C)C)NC(=O)c1ccc(NCc2cnc[nH]2)cc1-c1cccc2ccccc12` [GGTI-2147]: the IC50 was 500 nM in data set [1] and 30000 nM in data set [4].

One may read the IC50 as the midpoint of a concentration-inhibition curve.
